Data from patent US12319939B2, “Carbonyl reductase mutant and its application” (priority 2023, dated 2025).

What was measured:
CCOC(=O)CCCCC(=O)CCCl [1] = assay: Enzyme kinetic parameters (NADPH consumption at 340 nm), double mutant; assay type: biochemical, Candida orthopsilosis Co 90-125; settings: other: R129L/D210T, substrate 0.1-10 mM, PB pH 7.0, 30° C.
Excerpt: (§1) The present disclosure starts with the substrate channel of the carbonyl reductase protein structure of Candida orthopsilosis Co 90-125 (amino acid sequence as shown in SEQ ID NO: 1) with ID XP 003867714.1 in Genbank, analyzes the entrance segment and internal structural characteristics of the substrate channel, and performs iterative saturation mutagenesisit through semi-rational design, so as to determine that the key factor affecting the initial enzymatic properties of carbonyl reductase is the amino acids at positions R129, D210 and S126. […] On this basis, serine (Ser) at position 126 is replaced with alanine (Ala), to obtain the triple mutant R129L/D210T/S126A (amino acid sequence as shown in SEQ ID NO: 5).
(§2) The double mutation R129L/D210T changed the codons 385-387 of the carbonyl reductase gene sequence from CGT to CTG, thereby replacing the 129th position of the amino acid sequence from arginine (R) to leucine (L); changed the codons 628-630th position from GAT to ACC, thereby the 210th position of the amino acid sequence from aspartic acid (D) to threonine (T), to obtain an enzyme mutant, wherein its amino acid sequence is shown in SEQ ID NO: 3, and the nucleotide sequence of the coding gene is shown in SEQ ID NO: 4.
(§3) One enzyme activity unit U is defined as the amount of enzyme required to consume 1 μmol NADPH within 1 minute.
(§4) The substrate concentration was set to be 0.1-10 mM, and the rest was the same enzyme activity determination system and reaction conditions as described above.

[2] = target: Candida orthopsilosis Co 90-125 carbonyl reductase CoCR 13 variant R129L/D210T, SEQ ID NO: 3 (Lodderomyces orthopsilosis, UniProt H8WZT2, D210T/R129L); assay: as above; assay type: biochemical
Excerpt: as §1, §2, §3, §4

[3] = target: Candida orthopsilosis Co 90-125 carbonyl reductase CoCR 13 (Genbank XP_003867714.1), wild type (WT), SEQ ID NO: 1 (Lodderomyces orthopsilosis, UniProt H8WZT2); assay: Enzyme kinetic parameters (NADPH consumption at 340 nm), initial carbonyl reductase; assay type: biochemical
Excerpt: On this basis, serine (Ser) at position 126 is replaced with alanine (Ala), to obtain the triple mutant R129L/D210T/S126A (amino acid sequence as shown in SEQ ID NO: 5).
Through gene mining, the carbonyl reductase gene with Genbank ID XP_003867714.1 was screened from the NCBI database. The open reading frame of this gene is 1005 bp long, the carbonyl reductase encoded by it consists of 334 amino acids, and its amino acid sequence (334aa) is:
as §3, §4

[4] = target: Candida orthopsilosis Co 90-125 carbonyl reductase CoCR 13 variant R129L/D210T/S126A, SEQ ID NO: 5 (Lodderomyces orthopsilosis, UniProt H8WZT2, D210T/R129L/S126A); assay: Enzyme kinetic parameters (NADPH consumption at 340 nm), triple mutant; assay type: biochemical
Excerpt: as §1
(§5) While the triple mutation changed from AGC to GCG at codons 376-378 of the carbonyl reductase double mutant gene sequence, thereby replacing serine(S) with alanine (A) at position 126 of the amino acid sequence, to obtain a triple mutant, wherein its amino acid sequence is shown in SEQ ID NO: 5, and the nucleotide sequence of the coding gene is shown in SEQ ID NO: 6.
as §3, §4

CCOC(=O)CCCCC(=O)CCCl [5] = assay: as above; assay type: biochemical, Candida orthopsilosis Co 90-125; settings: other: R129L/D210T/S126A, substrate 0.1-10 mM, PB pH 7.0, 30° C.
Excerpt: as §1, §5, §3, §4

[6] = R129L/D210T, substrate 0.1-10 mM, NADPH, PB pH 7.0, 30° C.
[7] = WT, substrate 0.1-10 mM, NADPH, PB pH 7.0, 30° C.
[8] = R129L/D210T/S126A, substrate 0.1-10 mM, NADPH, PB pH 7.0, 30° C.

“Candida orthopsilosis Co 90-125 carbonyl reductase CoCR 13 variant R129L/D210T, SEQ ID NO: 3 (Lodderomyces orthopsilosis Co 90-125; D210T/R129L)” was tested, and the Km (CCOC(=O)CCCCC(=O)CCCl [1]) was 1740 ± 160 µM.
With `CCOC(=O)CCCCC(=O)CCCl` [8-chloro-6-oxooctanoic acid ethyl ester] the Relative catalytic efficiency ([2]; R129L/D210T relative to WT) was 31.65, the “Catalytic efficiency (kcat/Km)” value [2, 6] was 29120 M⁻¹ s⁻¹ and the “Number of conversions (kcat)” value [2, 6] was 50.60 ± 1.49 s⁻¹. The “catalytic efficiency increase compared to the initial carbonyl reductase” value ([2]; double mutant vs initial carbonyl reductase) was 31.65 times, the Relative catalytic efficiency ([3]; WT as reference (1.00)) was 1.00 and the “Catalytic efficiency (kcat/Km)” value [3, 7] was 920 M⁻¹ s⁻¹. For the same molecule, the “Number of conversions (kcat)” value [3, 7] was 4.7 ± 0.33 s⁻¹, the Relative catalytic efficiency ([4]; R129L/D210T/S126A relative to WT) was 93.42 and the “Catalytic efficiency (kcat/Km)” value [4, 8] was 85950 M⁻¹ s⁻¹. For the same molecule, the “Number of conversions (kcat)” value [4, 8] was 69.46 ± 2.50 s⁻¹ and the “catalytic efficiency increase compared to the initial carbonyl reductase” value ([4]; triple mutant vs initial carbonyl reductase) was 93.42 times.
“Candida orthopsilosis Co 90-125 carbonyl reductase CoCR 13 variant R129L/D210T/S126A, SEQ ID NO: 5 (Lodderomyces orthopsilosis Co 90-125; D210T/R129L/S126A)” was tested, and the Km (CCOC(=O)CCCCC(=O)CCCl [5]) was 810 ± 110 µM.
